# Where two headings read alike, the source gives them in different places.
# Tests used:
# [1] = test system: Leishmania amazonensis promastigotes (LaP); set-up: method as in Monzote, Garcia, et al., 2014; settings: ref Monzote, Garcia, et al., 2014, cited from earlier work; for IC50: previous study, read-out: IC50 against LaP
# [2] = target: T1, succinate:ubiquinone oxidoreductase (complex II), BH‐SMP (Bos taurus, UniProt P31039+P35720+Q3T189+Q95123); assay: Succinate:ubiquinone oxidoreductase (complex II) activity in BH‐SMP, DCPIP; type: biochemical, bovine
# T1 construct: from tissue; host or cells: bovine heart submitochondrial particles (BH-SMP)
# T1 sequence (P31039 45-665 limits assumed): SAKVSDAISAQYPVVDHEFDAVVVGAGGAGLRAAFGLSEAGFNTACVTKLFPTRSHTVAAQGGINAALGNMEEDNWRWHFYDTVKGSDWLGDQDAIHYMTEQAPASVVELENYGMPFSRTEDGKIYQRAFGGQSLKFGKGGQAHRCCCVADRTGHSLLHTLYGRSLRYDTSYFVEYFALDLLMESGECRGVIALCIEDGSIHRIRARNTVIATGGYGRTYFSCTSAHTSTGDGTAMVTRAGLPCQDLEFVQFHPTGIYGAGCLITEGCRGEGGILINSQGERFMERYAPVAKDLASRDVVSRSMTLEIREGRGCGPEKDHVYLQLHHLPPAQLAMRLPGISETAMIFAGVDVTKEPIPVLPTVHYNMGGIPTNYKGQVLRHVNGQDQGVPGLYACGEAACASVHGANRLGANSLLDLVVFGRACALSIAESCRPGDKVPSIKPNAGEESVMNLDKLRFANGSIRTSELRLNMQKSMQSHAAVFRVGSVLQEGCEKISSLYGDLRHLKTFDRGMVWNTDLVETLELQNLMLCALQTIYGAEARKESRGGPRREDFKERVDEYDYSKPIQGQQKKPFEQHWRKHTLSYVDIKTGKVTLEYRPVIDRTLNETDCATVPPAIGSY
# T1 sequence (Q3T189 29-280): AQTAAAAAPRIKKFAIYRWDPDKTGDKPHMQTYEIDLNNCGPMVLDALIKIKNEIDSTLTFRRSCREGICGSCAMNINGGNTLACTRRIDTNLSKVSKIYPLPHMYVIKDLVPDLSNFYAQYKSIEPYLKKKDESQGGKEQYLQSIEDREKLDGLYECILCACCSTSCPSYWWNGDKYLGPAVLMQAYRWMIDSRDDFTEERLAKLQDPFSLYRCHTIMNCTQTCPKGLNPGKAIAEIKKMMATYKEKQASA
# T1 sequence (P35720 30-169): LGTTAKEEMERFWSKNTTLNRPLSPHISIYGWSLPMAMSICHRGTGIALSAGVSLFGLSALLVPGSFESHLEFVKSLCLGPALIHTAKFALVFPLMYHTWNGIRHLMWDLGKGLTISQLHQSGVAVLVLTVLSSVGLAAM
# T1 sequence (Q95123 56-158): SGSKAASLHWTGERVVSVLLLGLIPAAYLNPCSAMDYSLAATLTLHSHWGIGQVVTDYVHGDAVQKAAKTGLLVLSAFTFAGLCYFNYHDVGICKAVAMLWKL
# Method: (§1) NADH:ubiquinone oxidoreductase (complex I) and succinate:ubiquinone oxidoreductase (complex II) activities were determined in 96 well‐plates using DCPIP as the electron acceptor. In each well, 200 μl of premix containing buffer (250 mM sucrose, 20 mM triethanolamine, and 1 mM EDTA, pH 7.4), DCPIP (60 μM), BSA (3.5 mg/ml for complex I and 1 mg/ml for complex II), idebenone (50 μM), and LtP‐Mit (complex I 0.17 μg/ml protein and complex II: 51 μg/ml protein) or BH‐SMP (complexes I and II: 8 μg/ml protein) were added. In addition, in the first wells, 97 μl of premix and 3 μl of EO compounds were added. Then six serial 1:3 dilutions were carried out transferring 100 μl in each step. The reaction was started by adding 50 μl of start‐mix per well, giving final concentrations of KCN (1 mM), for complex I:NADH (300 μM) or complex II:succinate (4 mM). After start of the reaction, images of the plates were recorded with a Canon EOS 300D camera (PLReader software, red–green channel) each 10 min for LtP‐Mit and 3 min for BH‐SMP (20 absorbance measurements). For each EO compound, percentage of inhibition was obtained with respect to controls (set to 100%) treated with maximum volume of vehicle (DMSO) introduced by test compound stocks.
# [3] = test system: Leishmania tarentolae promastigotes (LtP); assay: Viability of LtP treated with EO main components (resazurin); type: cell-based
# Method: LtP (200 μl, 2 × 10^6 parasites/ml) in YEM/phosphate‐buffered saline (PBS; 1:1 vol/vol, including antibiotics and 6 μM hemin) were distributed in 96‐well plates (nontreated plates). Compound stocks (in DMSO, max. 2% final concentration) were added, and five 1:3 serial dilutions were performed. Control rows with YEM/PBS (no activity) and with untreated LtP (vehicle, DMSO; 100% activity) were loaded, and the plate was incubated at 26 °C for 48 hr. Then resazurin (50 μl in PBS) was added (20 μM final concentration), and after 4 hr of incubation at 26 °C, the fluorescence of […] was measured at 560 nm excitation and 590 nm emission using a plate reader (PerkinElmer Enspire, Germany). Each compound was tested in triplicate.
# [4] = target: T2, ubiquinol:cytochrome c oxidoreductase (complex III), BH‐SMP (Bos taurus, UniProt P00125+P00157+P13272); assay: dUQH2:cyt c3+ oxidoreductase (complex III) activity in BH‐SMP; type: biochemical, bovine
# T2 construct: from tissue; host or cells: bovine heart submitochondrial particles (BH-SMP)
# Method: To measure the ubiquinol:cyt c ^3+ oxidoreductase (complex III) activity, the reduction of 100 μM cyt c ^3+ at 550 nm using 540 nm as reference was monitored in the presence of the artificial substrate decylubiquinol (dUQH2, 75 μM), which was prepared from dUQ by reduction (Müllebner et al., 2010). The dUQH2:cyt c ^3+ oxidoreductase activities of 40 μg protein/ml of LtP‐Mit or 3.2 μg protein/ml of BH‐SMP were measured in 1 ml of buffer containing 250 mM sucrose, 50 mM KH2PO4, 0.2 mM EDTA (pH 7.2), 2 mM KCN, and 4 mM NaN3. Respective EO compounds were added 50 s after starting the time scan, and the reaction was started after 100 s with dUQH2 and was monitored for additional 150 s. The activity of noninhibited dUQH2:cyt c ^3+ oxidoreductase activity was measured in the presence of the vehicle for the respective inhibitor (DMSO). All inhibitor concentrations were tested in triplicate. The reduction rates for cyt c ^3+ were calculated from the time trace of the absorption difference at 550 − 540 nm (ε550–540 nm = 19 mmol^−1 L cm^−1). Reduction rates in the presence of DMSO (maximum amount that was introduced by test compound stocks) were set to 100%, and the remaining activities in the presence of EO compounds were expressed in %. Three replicates were measured for each concentration.
# [5] = test system: Leishmania tarentolae promastigotes (LtP); assay: Oxygen consumption of LtP, Clark-type electrode (immediate effect); type: cell-based; settings: 10-200 μM tested
# Method: Direct inhibitors of mitochondrial ETC instantaneously influence mitochondrial oxygen consumption. To assay the effect of EO compounds on oxygen consumption of LtP, a Clark‐type oxygen electrode (Hansatech, Germany) and software MCREC were used. LtP at approximately 10^8 cells/ml in YEM (25 °C) were added and treated with increasing concentrations of EO compounds between 10 and 200 μM and for EO 5.6–89.6 μg/ml. Each concentration was assayed in quadruplicates, and the results were expressed as percentage of oxygen consumption in comparison with the untreated control LtP. The highest concentration of the vehicle (1% DMSO) caused only 2% inhibition. The uncoupling effect in short‐term and long‐term (0, 6, and 24 hr) incubations with Asc (200 μM) was studied in Oligo‐inhibited (5 μM) and uncoupler‐stimulated (0.5 μM CCCP) LtP in Schneider's medium supplemented with 6 μM hemin. Four replicates were performed for each concentration.
# [6] = target: succinate:ubiquinone oxidoreductase (complex II), LtP‐Mit (Leishmania tarentolae, UniProt A0A640KIH4+A0A640KIH8); assay: Succinate:ubiquinone oxidoreductase (complex II) activity in LtP‐Mit, DCPIP; type: biochemical; settings: for IC50: read-out: IC50 Complex II LtP‐Mit
# Chain of succinate:ubiquinone oxidoreductase (complex II), LtP‐Mit (A0A640KIH4 entry or part of it): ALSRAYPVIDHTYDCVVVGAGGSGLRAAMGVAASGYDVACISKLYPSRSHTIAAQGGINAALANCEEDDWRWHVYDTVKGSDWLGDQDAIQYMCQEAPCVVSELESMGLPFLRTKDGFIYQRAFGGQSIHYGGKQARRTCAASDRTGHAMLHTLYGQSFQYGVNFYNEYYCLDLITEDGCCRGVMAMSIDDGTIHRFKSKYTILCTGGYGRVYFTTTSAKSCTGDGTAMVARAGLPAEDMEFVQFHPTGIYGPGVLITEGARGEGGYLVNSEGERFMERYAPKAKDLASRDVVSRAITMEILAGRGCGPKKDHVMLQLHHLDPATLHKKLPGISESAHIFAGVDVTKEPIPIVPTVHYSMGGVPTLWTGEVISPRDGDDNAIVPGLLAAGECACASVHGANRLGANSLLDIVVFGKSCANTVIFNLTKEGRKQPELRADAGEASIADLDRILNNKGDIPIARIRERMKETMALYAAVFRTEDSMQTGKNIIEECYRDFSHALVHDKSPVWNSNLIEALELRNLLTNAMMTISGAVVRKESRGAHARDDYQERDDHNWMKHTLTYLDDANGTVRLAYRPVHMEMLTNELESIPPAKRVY
# Chain of succinate:ubiquinone oxidoreductase (complex II), LtP‐Mit (A0A640KIH8 entry or part of it): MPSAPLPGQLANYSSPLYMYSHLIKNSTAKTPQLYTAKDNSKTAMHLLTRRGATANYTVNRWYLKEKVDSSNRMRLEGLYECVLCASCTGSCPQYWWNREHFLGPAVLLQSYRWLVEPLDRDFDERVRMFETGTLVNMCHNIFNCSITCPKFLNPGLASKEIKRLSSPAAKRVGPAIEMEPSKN
# Method: as §1
# [7] = target: NADH:ubiquinone oxidoreductase (complex I), LtP‐Mit (Leishmania tarentolae, UniProt A0A640KJ43+P15576+Q34939); assay: NADH:ubiquinone oxidoreductase (complex I) activity in LtP‐Mit, DCPIP; type: biochemical; settings: for IC50: read-out: IC50 Complex I LtP‐Mit
# Chain of NADH:ubiquinone oxidoreductase (complex I), LtP‐Mit (Q7M3U1 entry or part of it): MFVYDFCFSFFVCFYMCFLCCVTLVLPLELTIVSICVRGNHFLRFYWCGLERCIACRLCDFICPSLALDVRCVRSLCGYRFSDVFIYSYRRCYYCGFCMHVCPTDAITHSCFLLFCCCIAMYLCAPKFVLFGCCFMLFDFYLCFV
# Chain of NADH:ubiquinone oxidoreductase (complex I), LtP‐Mit (P15576 whole entry): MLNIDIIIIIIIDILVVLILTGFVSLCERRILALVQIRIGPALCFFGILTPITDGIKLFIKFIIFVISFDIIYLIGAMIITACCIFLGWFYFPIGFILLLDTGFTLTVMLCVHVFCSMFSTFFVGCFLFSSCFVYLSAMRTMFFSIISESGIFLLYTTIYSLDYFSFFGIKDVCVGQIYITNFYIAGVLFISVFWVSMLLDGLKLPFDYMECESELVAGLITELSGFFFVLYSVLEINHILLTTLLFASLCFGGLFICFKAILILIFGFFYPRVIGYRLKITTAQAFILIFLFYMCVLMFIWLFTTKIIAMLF
# Chain of NADH:ubiquinone oxidoreductase (complex I), LtP‐Mit (A0A640K8W3 entry or part of it, further chain): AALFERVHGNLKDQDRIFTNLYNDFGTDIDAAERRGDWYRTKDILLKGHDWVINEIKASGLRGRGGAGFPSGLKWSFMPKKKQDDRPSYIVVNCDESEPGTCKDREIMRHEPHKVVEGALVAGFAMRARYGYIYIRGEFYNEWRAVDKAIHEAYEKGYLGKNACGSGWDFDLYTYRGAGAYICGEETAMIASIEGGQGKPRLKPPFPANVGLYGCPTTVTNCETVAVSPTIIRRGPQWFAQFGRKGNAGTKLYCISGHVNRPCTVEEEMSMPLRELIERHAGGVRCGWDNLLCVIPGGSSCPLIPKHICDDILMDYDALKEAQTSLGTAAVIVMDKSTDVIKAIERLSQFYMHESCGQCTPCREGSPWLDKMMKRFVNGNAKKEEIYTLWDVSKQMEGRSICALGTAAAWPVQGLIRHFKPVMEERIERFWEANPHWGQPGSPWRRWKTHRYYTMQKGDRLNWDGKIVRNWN
# Chain of NADH:ubiquinone oxidoreductase (complex I), LtP‐Mit (P15583 whole entry, further chain): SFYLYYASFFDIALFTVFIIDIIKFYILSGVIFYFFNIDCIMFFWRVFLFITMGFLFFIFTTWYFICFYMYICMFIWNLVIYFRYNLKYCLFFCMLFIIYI
# Chain of NADH:ubiquinone oxidoreductase (complex I), LtP‐Mit (Q34939 entry or part of it): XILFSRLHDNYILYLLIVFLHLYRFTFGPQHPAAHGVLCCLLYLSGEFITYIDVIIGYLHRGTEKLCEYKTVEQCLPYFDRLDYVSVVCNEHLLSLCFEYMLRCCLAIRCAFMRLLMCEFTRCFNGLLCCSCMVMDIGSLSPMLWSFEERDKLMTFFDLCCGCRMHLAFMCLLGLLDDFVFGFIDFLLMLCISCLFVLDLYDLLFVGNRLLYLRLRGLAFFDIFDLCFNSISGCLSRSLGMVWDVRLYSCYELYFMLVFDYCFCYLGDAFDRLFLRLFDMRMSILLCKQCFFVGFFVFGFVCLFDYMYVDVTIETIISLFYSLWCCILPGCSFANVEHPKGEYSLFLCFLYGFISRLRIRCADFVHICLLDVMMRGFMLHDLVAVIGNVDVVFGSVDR
# Chain of NADH:ubiquinone oxidoreductase (complex I), LtP‐Mit (A0A640KJ43 entry or part of it): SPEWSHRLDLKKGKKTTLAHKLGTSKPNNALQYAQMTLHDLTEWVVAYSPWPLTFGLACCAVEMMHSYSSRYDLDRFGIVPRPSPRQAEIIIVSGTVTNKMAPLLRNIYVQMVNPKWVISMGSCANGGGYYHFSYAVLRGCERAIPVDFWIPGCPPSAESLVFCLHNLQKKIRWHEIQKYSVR
# Method: as §1
# [8] = read-out: IC50 Complex II BH‐SMP
# [9] = 48 hr at 26 °C, resazurin, n = 3, read-out: IC50, viability of LtP
# [10] = read-out: IC50 Complex III BH‐SMP
Compound,IC50 [1],"% of inhibition at highest concentration tested, Complex II BH‐SMP [2]","IC50 [2, 8]","IC50 [3, 9]","IC50 [4, 10]",Inhibition of LtP oxygen consumption (in words) [5],"IC50 ([5]; Leishmania tarentolae, read-out: IC50, inhibition of LtP oxygen consumption)","% of inhibition at highest concentration tested, Complex II LtP‐Mit [6]",IC50 [6],"% of inhibition at highest concentration tested, Complex I LtP‐Mit [7]",IC50 [7],"% of inhibition at highest concentration tested, Complex III BH‐SMP [4]",IC50 values for L. amazonensis in the presence of iron chelators ([1]; with iron chelators),IC50 [2],"IC50 ([3]; 48 h, read-out: IC50, viability of LtP)",IC50 [4]
"C=C1CC[C@H]2O[C@]2(C)CC[C@@H]2[C@@H]1CC2(C)C [Caryo, caryophyllene oxide]",22.2 ± 10.4 µM,16.3%,> 100 µM,36 ± 17.6 µM,> 100 µM,strongly inhibited LtP oxygen consumption,98 ± 2 µM,12.3%,> 100 µM,7.2%,> 100 µM,,,,,
"Cc1ccc(C(C)C)cc1O [Car, carvacrol]",101 ± 30 µM,21.5%,> 100 µM,11.6 ± 3.4 µM,> 100 µM,failed to strongly inhibit oxygen consumption,,8.8%,> 100 µM,16.4%,> 100 µM,22.8%,,,,
"CC(C)C12C=CC(C)(CC1)OO2 (stereo not shown) [Asc, ascaridole]",0.6 ± 0.06 µM,21.2%,,,,failed to strongly inhibit oxygen consumption,,17.6%,> 100 µM,1.1%,> 100 µM,17.7%,strongly increased,> 100 µM,24.5 ± 3 µM,> 100 µM

# From paper PMC6208284 (Phytotherapy Research, 2018)
